Data set [1] in a line: RP, Waters ACQUITY UPLC HSS C18, 100 × 2.1 mm, 1.7 µm, 40 °C, 0.35 mL/min, estimated dead time 0.63 min; A: water + 0.1% formic acid; B: methanol + 0.1% formic acid; gradient (min/%B) 0/0.5 4/70 4.5/98 5.4/98. The settings on record: stereoisomer not certain.
Data set [2] in a line: Waters ACQUITY UPLC BEH C18, 100 × 2.1 mm, 1.7 µm, 40 °C, 0.28 mL/min, estimated dead time 0.63 min; A: water + 6.5 mM ammonium hydroxide; B: methanol + 6.5 mM ammonium hydroxide; gradient (min/%B) 0/0.5 4/70 4.5/98 5.4/98. The conditions noted are these: stereoisomer not certain.

For `NCCCCC(NC(CCc1ccccc1)C(=O)O)C(=O)N1CCCC1C(=O)O` (stereo unspecified), the LC retention time in data set [1] is 3.22 min; in data set [2], 2.96 min.
In the same order, the values of `O=C(O)CNC(=O)Cc1ccccc1` are 3.49 min and 2.69 min.
In the same order, the values of `O=[N+]([O-])c1ccc(O)cc1` are 4.18 min and 2.41 min.
The like results for `CC1=CC(=O)NS(=O)(=O)O1` were, in that order, 2.12 min and 1.78 min.
On to `NCCc1c[nH]c2ccccc12`, for which the figures for the LC retention time in data set [1] and in data set [2] were 2.82 min and 3.67 min, respectively.
`CCOC(=O)C(N)Cc1c[nH]c2ccccc12` (stereo unspecified): the LC retention time is 3.82 min in data set [1] and 5.01 min in data set [2].
The like results for `CC(=O)NC(CC(N)=O)C(=O)O` (stereo unspecified) were, in that order, 0.981 min and 0.76 min.
The like results for `NC(N)=NCCCC(=O)O` were, in that order, 1.11 min and 0.91 min.
The like results for `CC(C(=O)O)c1cccc(C(=O)c2ccccc2)c1` (stereo unspecified) were, in that order, 5.37 min and 4.61 min.
For the compound `Cc1ncc(CO)c(C=O)c1O`, the LC retention time in data set [1] was 0.85 min; in data set [2] it was 1.77 min.
In the same order, the values of `CC(NC(=O)Cc1c[nH]c2ccccc12)C(=O)O` (stereo unspecified) are 4 min and 3.24 min.
The like results for `Cc1ccc(S(=O)(=O)O)cc1` were, in that order, 3 min and 2.67 min.
In the same order, the values of `CN1CC(=O)NC1=N` are 0.77 min and 0.861 min.
As for `CSc1ncnc2nc[nH]c12`, the figures for the LC retention time in data set [1] and in data set [2] were 3.43 min and 3.28 min, respectively.
In the same order, the values of `CCC1(C)CC(=O)NC1=O` (stereo unspecified) are 3.39 min and 3.44 min.
For the compound `CC(CN)C(=O)O` (stereo unspecified), the LC retention time in data set [1] was 0.839 min; in data set [2], 0.808 min.
In the same order, the values of `CC(=O)NC(CC(C)C)C(=O)O` (stereo unspecified) are 3.9 min and 2.73 min.
Regarding `Cc1cccc(C(=O)O)c1O`, the LC retention time was 5.29 min in data set [1] and 3.44 min in data set [2].
In the same order, the values of `O=C(O)c1ccc2ccccc2n1` are 3.21 min and 3.07 min.
`CC(=O)NCCc1c[nH]c2ccc(O)cc12`: the results for the LC retention time in data set [1] and in data set [2] were 3.01 min and 3.09 min, respectively.
As for `CC(C)(N)C(=O)O`, the LC retention time in data set [1] is 0.821 min; in data set [2] it was 0.806 min.
The like results for `Nc1ccn(C2OC(CO)C(O)C2O)c(=O)n1` (stereo unspecified) were, in that order, 1.1 min and 1.49 min.
The like results for `NC(=O)NCCCCC(N)C(=O)O` (stereo unspecified) were, in that order, 0.857 min and 0.853 min.
The like results for `Nc1ccn(C2CC(O)C(CO)O2)c(=O)n1` (stereo unspecified) were, in that order, 1.29 min and 1.73 min.
Regarding `CC(=O)OCC(N)C(=O)O` (stereo unspecified), the LC retention time was 0.854 min in data set [1] and 0.876 min in data set [2].
In the same order, the values of `OCC1OCC(O)C(O)C1O` (stereo unspecified) are 0.864 min and 0.865 min.
As to `O=C(O)Cc1c[nH]c2ccccc12`, the LC retention time was 4.21 min in data set [1] and 2.51 min in data set [2].
The like results for `OCC1OC(OCC2OC(O)C(O)C(O)C2O)C(O)C(O)C1O` (stereo unspecified) were, in that order, 0.804 min and 0.831 min.
The like results for `CCCCC(N)C(=O)O` (stereo unspecified) were, in that order, 1.96 min and 1.77 min.
Regarding `O=C(O)c1ccoc1`, the LC retention time in data set [1] was 3.35 min; in data set [2] it was 0.886 min.
The like results for `Cc1ncc(CO)c(C(=O)O)c1O` were, in that order, 1.97 min and 2.54 min.
The like results for `NC(Cc1ccc(O)c(O)c1)C(=O)O` (stereo unspecified) were, in that order, 1.29 min and 1.1 min.
In the same order, the values of `CCN1CCCC1CNC(=O)c1cc(S(N)(=O)=O)ccc1OC` (stereo unspecified) are 2.24 min and 4.29 min.
